The values below are quoted from earlier work in patent publication US12564599B2, “Pharmaceutical composition comprising tetrahydrocannabivarin for the prevention and treatment of overweight” (CepVentures International Corporation, priority 2019, dated 2026).

Molecules are shown by their SMILES.

The conditions of this data set: over a 6 month or a 1 year period.

Take `CC(C)CC(N(C)C)C1(c2ccc(Cl)cc2)CCC1` (stereo not shown) [Sibutramine]: the reduces body weight entry is recorded as “about 10%”.
